The text below walks through data of patent US20140179664A1, “Heterocyclyl Pyrimidine Analogues As JAK Inhibitors” (Cellzome Limited, priority 2011, published 2014).

Where only a bound is given, the exact number is not on record here.

Test [1] deals with T1, JAK1 (Homo sapiens, UniProt P23458).
T1 construct: endogenous in cells; host or cells: Molt4 (ATCC CRL-1582) and Ramos (ATCC CRL-1596), mixed lysate 1:2
Briefly: Kinobeads assay, JAK1. In kind it is binding. The conditions noted are these: mixed Molt4/Ramos lysate, read-out: Inhibition values (IC50) JAK1. The gist of the method: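 Mixed Molt4/Ramos cell lysate (1:2) was incubated 3 hours in the cold with kinobeads and a 9-step 1:3 compound dilution series. The no-compound control carried 2% DMSO. Bead-bound JAK1 was eluted, detected by antibody dot blot with infrared fluorescence, and IC50 derived from dose-response curves.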

Test [2] deals with T2, JAK2 (Homo sapiens, UniProt O60674).
T2 construct: endogenous in cells; host or cells: Molt4 (ATCC CRL-1582) and Ramos (ATCC CRL-1596), mixed lysate 1:2
As to the kind of experiment: Kinobeads assay, JAK2. In kind it is binding. The note with it: mixed Molt4/Ramos lysate, read-out: Inhibition values (IC50) JAK2. In short, it runs like this: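 Mixed Molt4/Ramos lysate (1:2, 10 mg/mL protein) was incubated 3 h in the cold with the immobilized aminopyrido-pyrimidine affinity matrix and compound, 9-step 1:3 dilutions. Bead-bound kinases were eluted and quantified by antibody dot blot with infrared detection. IC50s are from dose-response curves.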

T1 sequence (P23458 whole entry): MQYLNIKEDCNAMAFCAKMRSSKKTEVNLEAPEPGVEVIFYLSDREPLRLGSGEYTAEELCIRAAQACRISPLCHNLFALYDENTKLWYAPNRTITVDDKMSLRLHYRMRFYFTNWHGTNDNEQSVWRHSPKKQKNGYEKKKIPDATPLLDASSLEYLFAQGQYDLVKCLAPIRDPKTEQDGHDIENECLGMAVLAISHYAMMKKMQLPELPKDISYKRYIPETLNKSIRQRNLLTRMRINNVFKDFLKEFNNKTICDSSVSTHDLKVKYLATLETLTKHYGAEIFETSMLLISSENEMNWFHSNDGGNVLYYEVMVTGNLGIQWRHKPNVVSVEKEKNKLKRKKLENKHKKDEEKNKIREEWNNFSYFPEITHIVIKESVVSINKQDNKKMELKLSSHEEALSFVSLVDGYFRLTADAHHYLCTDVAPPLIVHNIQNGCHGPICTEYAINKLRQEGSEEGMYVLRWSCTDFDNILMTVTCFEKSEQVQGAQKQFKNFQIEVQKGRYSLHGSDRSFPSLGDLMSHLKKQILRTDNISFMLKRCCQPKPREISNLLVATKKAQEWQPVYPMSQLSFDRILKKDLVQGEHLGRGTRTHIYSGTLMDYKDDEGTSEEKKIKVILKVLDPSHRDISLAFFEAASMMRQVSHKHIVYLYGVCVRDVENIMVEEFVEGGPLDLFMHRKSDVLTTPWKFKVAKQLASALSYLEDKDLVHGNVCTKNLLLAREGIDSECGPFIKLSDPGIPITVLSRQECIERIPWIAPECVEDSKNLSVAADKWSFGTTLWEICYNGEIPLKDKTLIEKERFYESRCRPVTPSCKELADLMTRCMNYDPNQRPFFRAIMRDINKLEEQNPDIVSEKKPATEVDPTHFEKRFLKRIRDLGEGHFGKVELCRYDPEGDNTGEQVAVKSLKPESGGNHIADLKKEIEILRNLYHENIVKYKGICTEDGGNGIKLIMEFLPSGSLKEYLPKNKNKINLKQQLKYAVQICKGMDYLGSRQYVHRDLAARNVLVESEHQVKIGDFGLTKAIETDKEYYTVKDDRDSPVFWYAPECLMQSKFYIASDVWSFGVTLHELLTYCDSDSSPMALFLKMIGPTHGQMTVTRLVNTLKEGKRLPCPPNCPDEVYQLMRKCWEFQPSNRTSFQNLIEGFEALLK
T2 sequence (O60674 whole entry): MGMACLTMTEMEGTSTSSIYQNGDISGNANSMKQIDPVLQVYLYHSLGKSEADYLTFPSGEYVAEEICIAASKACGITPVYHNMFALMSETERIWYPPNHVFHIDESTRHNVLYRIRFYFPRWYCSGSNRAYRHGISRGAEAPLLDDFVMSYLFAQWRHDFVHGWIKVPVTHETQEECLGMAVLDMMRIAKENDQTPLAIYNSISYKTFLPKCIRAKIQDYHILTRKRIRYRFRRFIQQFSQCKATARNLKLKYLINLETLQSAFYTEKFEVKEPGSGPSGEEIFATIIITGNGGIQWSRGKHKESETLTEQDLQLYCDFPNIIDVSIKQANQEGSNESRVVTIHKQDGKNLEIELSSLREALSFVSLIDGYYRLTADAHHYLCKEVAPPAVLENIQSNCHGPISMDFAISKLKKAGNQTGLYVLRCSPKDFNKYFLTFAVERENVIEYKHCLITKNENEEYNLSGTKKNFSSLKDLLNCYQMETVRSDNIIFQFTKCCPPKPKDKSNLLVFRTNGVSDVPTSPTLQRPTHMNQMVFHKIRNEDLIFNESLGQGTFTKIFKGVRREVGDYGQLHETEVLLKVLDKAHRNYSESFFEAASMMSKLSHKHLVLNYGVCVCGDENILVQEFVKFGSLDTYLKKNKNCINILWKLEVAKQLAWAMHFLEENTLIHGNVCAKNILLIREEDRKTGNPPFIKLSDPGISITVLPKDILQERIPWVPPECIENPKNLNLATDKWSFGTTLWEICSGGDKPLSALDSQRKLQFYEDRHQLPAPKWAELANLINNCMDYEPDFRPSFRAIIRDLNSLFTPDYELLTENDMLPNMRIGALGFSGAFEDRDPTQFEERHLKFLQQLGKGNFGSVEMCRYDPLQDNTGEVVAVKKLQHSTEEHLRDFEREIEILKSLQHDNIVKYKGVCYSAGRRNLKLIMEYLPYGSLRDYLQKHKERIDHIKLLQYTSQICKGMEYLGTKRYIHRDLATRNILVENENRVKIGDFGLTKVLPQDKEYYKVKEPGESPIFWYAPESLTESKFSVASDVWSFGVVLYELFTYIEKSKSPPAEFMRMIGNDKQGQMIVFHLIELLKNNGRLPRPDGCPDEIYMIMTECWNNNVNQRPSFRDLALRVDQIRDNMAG

Broadly, the IC50 is the concentration that gives 50% inhibition. Take `Cn1cc(Nc2ncc(Cl)c(NC(CO)c3ccccc3)n2)cn1` (stereo not shown) [Compound 1]: the IC50 in test [1] was 1 to 10 µM; in test [2], at least 10 µM.

With `Cn1cc(Nc2ncc(F)c(NC(CO)c3ccccc3)n2)cn1` (stereo not shown) [Compound 2], the IC50 in test [1] is above 10 µM; in test [2] it was at least 10 µM.

On to `Cn1ccc(Nc2ncc(Cl)c(N[C@H](CO)c3ccccc3)n2)n1` [Compound 11], for which the IC50 in test [1] was above 10 µM; in test [2] it was at least 10 µM.

On to `Cc1cnc(Nc2cnn(CCO)c2)nc1NC(CO)c1ccccc1` (stereo not shown) [Compound 12], for which the results for the IC50 in test [1] and in test [2] were 1 to 10 µM and at least 10 µM, respectively.

In the case of `O=C(c1cc(Nc2ncc(Cl)c(N[C@H](CO)c3ccccc3)n2)c[nH]1)N1CCOCC1` [Compound 13], the 50% inhibitory concentration (IC50) in test [1] lay in the range of 1 to 10 µM; in test [2], 0.1 to 1 µM.

For `Cn1cc(Nc2ncc(Cl)c(NC(CO)Cc3ccccc3)n2)cn1` (stereo not shown) [Compound 14], the IC50 in test [1] and in test [2] was 1 to 10 µM in each case.

On to `COC(=O)C(Nc1nc(Nc2cnn(CCO)c2)ncc1Cl)c1ccccc1` (stereo not shown) [Compound 15], for which the results for the IC50 in test [1] and in test [2] were 1 to 10 µM and at least 10 µM, respectively.

For the compound `COC(=O)C(Nc1nc(Nc2cnn(C)c2)ncc1Cl)c1ccccc1` (stereo not shown) [Compound 16], the values for the IC50 in test [1] and in test [2] were 1 to 10 µM and at least 10 µM, respectively.

Consider `O=C(O)C(Nc1nc(Nc2cnn(CCO)c2)ncc1Cl)c1ccccc1` (stereo not shown) [Compound 17], for which the IC50 was above 10 µM in test [1] and at least 10 µM in test [2].

Turning to `Cn1cc(Nc2ncc(Cl)c(NC(C(=O)O)c3ccccc3)n2)cn1` (stereo not shown) [Compound 18], the IC50 in test [1] and in test [2] was 1 to 10 µM in each case.

On to `OCCn1cc(Nc2ncc(Cl)c(NC(CO)Cc3ccccc3)n2)cn1` (stereo not shown) [Compound 19], for which the IC50 was 0.1 to 1 µM in test [1] and 1 to 10 µM in test [2].

`CNC(=O)[C@@H](Nc1nc(Nc2cnn(C)c2)ncc1Cl)c1ccccc1` [Compound 20]: the results for the half-maximal inhibitory concentration (IC50) in test [1] and in test [2] were 1 to 10 µM and at least 10 µM, respectively.

With `CC(C)OC(=O)Cn1cc(Nc2ncc(Cl)c(N[C@H](CO)c3ccccc3)n2)cn1` [Compound 21], the IC50 in test [1] and in test [2] was 1 to 10 µM each time.

Consider `CCOC(=O)Cn1cc(Nc2ncc(Cl)c(N[C@H](CO)c3ccccc3)n2)cn1` [Compound 22], for which the IC50 in test [1] is 0.1 to 1 µM; in test [2] it was 1 to 10 µM.

In the case of `CNC(=O)Cn1cc(Nc2ncc(Cl)c(N[C@H](CO)c3ccccc3)n2)cn1` [Compound 23, (S)-2-(4-((5-chloro-4-((2-hydroxy-1-phenylethyl)amino)pyrimidin-2-yl)amino)-1H-pyrazol-1-yl)-N-methylacetamide], the IC50 was 0.1 to 1 µM in test [1] and 1 to 10 µM in test [2].

Consider `O=C(O)Cn1cc(Nc2ncc(Cl)c(N[C@H](CO)c3ccccc3)n2)cn1` [Compound 24], for which the half-maximal inhibitory concentration (IC50) in test [1] is 1 to 10 µM; in test [2], at least 10 µM.

With `CN(C)C(=O)[C@@H](Nc1nc(Nc2cnn(C)c2)ncc1Cl)c1ccccc1` [Compound 25], the values for the IC50 in test [1] and in test [2] were 1 to 10 µM and at least 10 µM, respectively.

Consider `CN(C)C(=O)[C@@H](Nc1nc(Nc2cnn(CCO)c2)ncc1Cl)c1ccccc1` [Compound 26], for which the IC50 in test [1] and in test [2] was 1 to 10 µM in each case.

For the compound `CCNC(=O)[C@@H](Nc1nc(Nc2cnn(CCO)c2)ncc1Cl)c1ccccc1` [Compound 27], the IC50 in test [1] is 1 to 10 µM; in test [2] it was at least 10 µM.

Take `CCNC(=O)[C@@H](Nc1nc(Nc2cnn(C)c2)ncc1Cl)c1ccccc1` [Compound 28]: the figures for the half-maximal inhibitory concentration (IC50) in test [1] and in test [2] were 1 to 10 µM and at least 10 µM, respectively.

`COCCNC(=O)[C@@H](Nc1nc(Nc2cnn(C)c2)ncc1Cl)c1ccccc1` [Compound 29]: the IC50 in test [1] and in test [2] was 1 to 10 µM in each case.

Take `CN(C)C(=O)Cn1cc(Nc2ncc(Cl)c(N[C@H](CO)c3ccccc3)n2)cn1` [Compound 30]: the IC50 in test [1] lay in the range of 0.1 to 1 µM; in test [2], 1 to 10 µM.

In the case of `CNC(=O)Cn1cc(Nc2ncc(Cl)c(NC(CO)c3c(F)cccc3F)n2)cn1` (stereo not shown) [Compound 31], the 50% inhibitory concentration (IC50) in test [1] and in test [2] was 1 to 10 µM throughout.

For the compound `CNC(=O)Cn1cc(Nc2ncc(Cl)c(NC(CO)c3cccc(F)c3)n2)cn1` (stereo not shown) [Compound 32], the IC50 in test [1] and in test [2] was 1 to 10 µM each time.

Take `CNC(=O)Cn1cc(Nc2ncc(Cl)c(NC(CO)c3ccccc3F)n2)cn1` (stereo not shown) [Compound 33]: the IC50 in test [1] and in test [2] was 1 to 10 µM throughout.

Take `Cn1cc(Nc2ncc(Cl)c(N[C@H](C(=O)N3CCCC3)c3ccccc3)n2)cn1` [Compound 34]: the IC50 in test [1] and in test [2] was 1 to 10 µM throughout.

As to `O=C([C@@H](Nc1nc(Nc2cnn(CCO)c2)ncc1Cl)c1ccccc1)N1CCCC1` [Compound 35], the IC50 in test [1] and in test [2] was 1 to 10 µM in each case.

As to `OCCn1cc(Nc2ncc(Cl)c(NC(CO)c3ccccc3F)n2)cn1` (stereo not shown) [Compound 36], the half-maximal inhibitory concentration (IC50) in test [1] lay in the range of 0.1 to 1 µM; in test [2], 1 to 10 µM.

With `Cn1cc(Nc2ncc(Cl)c(NC(CO)c3ccccc3F)n2)cn1` (stereo not shown) [Compound 37], the IC50 in test [1] and in test [2] was 1 to 10 µM throughout.

On to `CC(O)Cn1cc(Nc2ncc(Cl)c(NC(CO)c3cccc(F)c3)n2)cn1` (stereo not shown) [Compound 38], for which the IC50 was in the range of 0.1 to 1 µM in test [1] and 1 to 10 µM in test [2].

For the compound `OCCn1cc(Nc2ncc(Cl)c(NC(CO)c3cccc(F)c3)n2)cn1` (stereo not shown) [Compound 39], the IC50 in test [1] and in test [2] was 0.1 to 1 µM in each case.

For the compound `Cn1cc(Nc2ncc(Cl)c(NC(CO)c3cccc(F)c3)n2)cn1` (stereo not shown) [Compound 40], the IC50 in test [1] and in test [2] was 1 to 10 µM each time.

In the case of `OCCn1ccc(Nc2ncc(Cl)c(NC(CO)c3cccc(F)c3)n2)n1` (stereo not shown) [Compound 41], the half-inhibitory concentration (IC50) in test [1] was above 10 µM; in test [2], at least 10 µM.

`CC(O)Cn1cc(Nc2ncc(Cl)c(NC(CO)c3c(F)cccc3F)n2)cn1` (stereo not shown) [Compound 42]: the IC50 in test [1] and in test [2] was 1 to 10 µM throughout.

`OCCn1cc(Nc2ncc(Cl)c(NC(CO)c3c(F)cccc3F)n2)cn1` (stereo not shown) [Compound 43]: the IC50 in test [1] is 0.1 to 1 µM; in test [2], 1 to 10 µM.

On to `Cn1cc(Nc2ncc(Cl)c(NC(CO)c3c(F)cccc3F)n2)cn1` (stereo not shown) [Compound 44], for which the IC50 in test [1] and in test [2] was 1 to 10 µM in each case.

Regarding `OCCn1ccc(Nc2ncc(Cl)c(NC(CO)c3c(F)cccc3F)n2)n1` (stereo not shown) [Compound 45], the 50% inhibitory concentration (IC50) is above 10 µM in test [1] and at least 10 µM in test [2].

As for `Cn1cc(Nc2ncc(Cl)c(N[C@H](C(=O)NCCO)c3ccccc3)n2)cn1` [Compound 46], the concentration for half-maximal inhibition (IC50) in test [1] and in test [2] was 1 to 10 µM in each case.

With `O=C(NCCO)[C@@H](Nc1nc(Nc2cnn(CCO)c2)ncc1Cl)c1ccccc1` [Compound 47], the IC50 in test [1] was in the range of 0.1 to 1 µM; in test [2], 1 to 10 µM.

For the compound `COCCNC(=O)[C@@H](Nc1nc(Nc2cnn(CCO)c2)ncc1Cl)c1ccccc1` [Compound 48], the IC50 in test [1] lay in the range of 0.1 to 1 µM; in test [2], 1 to 10 µM.

For `Cn1cc(Nc2ncc(Cl)c(N[C@H](C(=O)N3CCCCC3)c3ccccc3)n2)cn1` [Compound 49], the half-inhibitory concentration (IC50) in test [1] was 1 to 10 µM; in test [2], at least 10 µM.

With `OCCn1ccc(Nc2ncc(Cl)c(NC(CO)c3ccccc3F)n2)n1` (stereo not shown) [Compound 50], the figures for the IC50 in test [1] and in test [2] were above 10 µM and at least 10 µM, respectively.

For `O=C([C@@H](Nc1nc(Nc2cnn(CCO)c2)ncc1Cl)c1ccccc1)N1CCCCC1` [Compound 51], the IC50 is above 10 µM in test [1] and at least 10 µM in test [2].

With `Cn1cc(Nc2ncc(Cl)c(NC(CO)c3cccc(Br)c3)n2)cn1` (stereo not shown) [Compound 52], the IC50 in test [1] is 1 to 10 µM; in test [2], at least 10 µM.

Turning to `Cn1cc(Nc2ncc(Cl)c(NC(CO)c3cccc(N4CC5(COC5)C4)c3)n2)cn1` (stereo not shown) [Compound 53], the IC50 was above 10 µM in test [1] and at least 10 µM in test [2].

As for `Cn1cc(Nc2ncc(Cl)c(N[C@@H](CO)c3ccccc3)n2)cn1` [Compound 54], the IC50 in test [1] was above 10 µM; in test [2] it was at least 10 µM.

Turning to `COC[C@@H](Nc1nc(Nc2cnn(C)c2)ncc1Cl)c1ccccc1` [Compound 55], the IC50 in test [1] is above 10 µM; in test [2], at least 10 µM.

As to `NC(=O)Cn1cc(Nc2ncc(Cl)c(N[C@H](CO)c3ccccc3)n2)cn1` [Compound 56], the results for the IC50 in test [1] and in test [2] were 0.1 to 1 µM and 1 to 10 µM, respectively.

With `CC(C)(O)Cn1cc(Nc2ncc(Cl)c(NC(CO)c3ccccc3F)n2)cn1` (stereo not shown) [Compound 57], the half-maximal inhibitory concentration (IC50) in test [1] was 1 to 10 µM; in test [2] it was at least 10 µM.

In the case of `Cn1cc(Nc2ncc(Cl)c(N[C@H](CO)c3ccccc3F)n2)cn1` [Compound 58], the IC50 in test [1] and in test [2] was 1 to 10 µM in each case.

On to `Cn1cc(Nc2ncc(Cl)c(N[C@H](C(=O)NC3CCCC3)c3ccccc3)n2)cn1` [Compound 59], for which the IC50 was above 10 µM in test [1] and at least 10 µM in test [2].

As to `O=C(NC1CCCC1)[C@@H](Nc1nc(Nc2cnn(CCO)c2)ncc1Cl)c1ccccc1` [Compound 60], the values for the IC50 in test [1] and in test [2] were 1 to 10 µM and at least 10 µM, respectively.

Consider `CC(C)(O)Cn1cc(Nc2ncc(Cl)c(NC(CO)c3cccc(F)c3)n2)cn1` (stereo not shown) [Compound 61], for which the IC50 in test [1] and in test [2] was 1 to 10 µM throughout.

Regarding `CC(C)(O)Cn1cc(Nc2ncc(Cl)c(NC(CO)c3c(F)cccc3F)n2)cn1` (stereo not shown) [Compound 62], the IC50 in test [1] was 1 to 10 µM; in test [2], at least 10 µM.

Consider `OCCn1cc(Nc2ncc(Cl)c(N[C@@H](CO)c3ccccc3)n2)cn1` [Compound 63], for which the figures for the IC50 in test [1] and in test [2] were 1 to 10 µM and at least 10 µM, respectively.

Turning to `OCCCn1cc(Nc2ncc(Cl)c(NC(CO)c3ccccc3F)n2)cn1` (stereo not shown) [Compound 64], the IC50 in test [1] and in test [2] was 1 to 10 µM each time.
